Molecules are shown by their SMILES. Counter-ions that a name gives are not always drawn. Like-named read-outs stand apart in the source and are kept apart here.

For one test, the system named is Masugi's nephritis. Nature of the test: Effectiveness in treating Masugi's nephritis (experimental glomerulonephritis), protein in urine. Format: in vivo, rat. Particulars: oral, mean ± standard deviation, 7 animals, control group 40.8 ± 15.1. As to the method:
[…] […] As the index to effectiveness, the protein concentration in urine was determined. That is, when inflammation develops in the kidney, it causes damage to renal tubules, etc., and a resultant increase in protein concentration in urine.

In a further test the target is T1, C1s (Homo sapiens, UniProt P09871).
T1 sequence (P09871 16-688): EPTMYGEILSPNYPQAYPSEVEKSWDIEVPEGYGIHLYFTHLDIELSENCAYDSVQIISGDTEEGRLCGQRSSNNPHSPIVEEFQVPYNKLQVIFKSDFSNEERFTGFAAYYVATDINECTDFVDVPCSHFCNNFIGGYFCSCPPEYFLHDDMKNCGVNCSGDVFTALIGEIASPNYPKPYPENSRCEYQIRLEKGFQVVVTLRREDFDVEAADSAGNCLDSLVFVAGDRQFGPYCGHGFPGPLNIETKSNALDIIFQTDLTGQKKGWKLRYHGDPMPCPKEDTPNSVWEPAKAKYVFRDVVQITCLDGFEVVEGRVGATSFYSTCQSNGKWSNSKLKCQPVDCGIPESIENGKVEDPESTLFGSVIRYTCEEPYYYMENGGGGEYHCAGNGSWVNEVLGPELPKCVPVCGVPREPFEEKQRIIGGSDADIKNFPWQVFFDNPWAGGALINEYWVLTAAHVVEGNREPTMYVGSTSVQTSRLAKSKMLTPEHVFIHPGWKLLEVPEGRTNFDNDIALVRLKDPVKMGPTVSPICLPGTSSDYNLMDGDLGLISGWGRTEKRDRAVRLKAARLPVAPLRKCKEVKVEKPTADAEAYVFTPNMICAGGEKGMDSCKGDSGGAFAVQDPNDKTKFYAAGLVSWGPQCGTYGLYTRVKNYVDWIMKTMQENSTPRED
As to the kind of experiment: anti-complement (anti-C1 esterase) activity, C1s hydrolysis of ATEE (acetyltyrosine ethyl ester). The format is biochemical. Particulars: hydrolysis of ATEE; read-out: Cls: molar concentration inhibiting 50% of C1s activity (IC50).

The target in a further test is plasmin (Homo sapiens, UniProt P00747). As to the kind of experiment: anti-plasmin activity, hydrolysis of TAME (tosylarginine methyl ester). Format: biochemical. The protocol: (§1) The values in Table 1 represent molar concentrations (IC50) of test compounds which inhibit 50% of the activity of each enzyme to hydrolyze TAME (tosylarginine methyl ester). The anti-trypsin, anti-plasmin, anti-kallikrein and anti-thrombin activities were determined according to the method of Muramatsu et al. (J. Biochem. (1965), volume 58, page 214).

For another test, the target named is T2, C1r (Homo sapiens, UniProt P00736).
T2 sequence (P00736 18-705): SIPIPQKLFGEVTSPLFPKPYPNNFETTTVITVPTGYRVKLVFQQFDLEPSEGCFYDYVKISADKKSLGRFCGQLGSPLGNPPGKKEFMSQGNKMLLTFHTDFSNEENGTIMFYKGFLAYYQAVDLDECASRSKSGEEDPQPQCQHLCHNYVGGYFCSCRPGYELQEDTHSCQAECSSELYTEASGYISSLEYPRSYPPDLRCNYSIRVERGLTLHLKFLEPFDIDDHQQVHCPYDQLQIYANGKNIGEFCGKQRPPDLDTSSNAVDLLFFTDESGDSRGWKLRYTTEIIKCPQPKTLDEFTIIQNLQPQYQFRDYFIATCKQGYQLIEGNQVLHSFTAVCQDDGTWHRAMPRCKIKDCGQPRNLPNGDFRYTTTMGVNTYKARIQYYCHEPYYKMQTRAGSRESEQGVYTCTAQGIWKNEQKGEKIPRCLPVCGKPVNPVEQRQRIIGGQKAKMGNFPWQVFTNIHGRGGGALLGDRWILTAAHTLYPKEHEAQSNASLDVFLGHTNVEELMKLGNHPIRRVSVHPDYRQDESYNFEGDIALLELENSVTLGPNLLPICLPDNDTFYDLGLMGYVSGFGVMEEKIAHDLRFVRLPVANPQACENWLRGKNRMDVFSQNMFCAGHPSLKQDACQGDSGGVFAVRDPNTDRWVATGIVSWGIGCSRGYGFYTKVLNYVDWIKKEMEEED
Nature of the test: anti-complement (anti-C1 esterase) activity, C1r hydrolysis of AAME (acetyl-arginine methyl ester). Format: biochemical. Particulars: hydrolysis of AAME; read-out: Clr: molar concentration inhibiting 50% of C1r activity (IC50).

The subject of a further test is kallikrein. Nature of the test: anti-kallikrein activity, hydrolysis of TAME (tosylarginine methyl ester). The format is biochemical. The conditions noted are these: hydrolysis of TAME; read-out: Kal: molar concentration inhibiting 50% of enzyme activity (IC50). As to the method: as §1
The target of the next test is thrombin (Homo sapiens, UniProt P00734). As to the kind of experiment: anti-thrombin activity, hydrolysis of TAME (tosylarginine methyl ester). The format is biochemical. The conditions noted are these: hydrolysis of TAME; read-out: Thr: molar concentration inhibiting 50% of enzyme activity (IC50). As to the method:
as §1

The target in the next test is T3, trypsin (Bos taurus, UniProt P00760).
T3 sequence (P00760 24-246): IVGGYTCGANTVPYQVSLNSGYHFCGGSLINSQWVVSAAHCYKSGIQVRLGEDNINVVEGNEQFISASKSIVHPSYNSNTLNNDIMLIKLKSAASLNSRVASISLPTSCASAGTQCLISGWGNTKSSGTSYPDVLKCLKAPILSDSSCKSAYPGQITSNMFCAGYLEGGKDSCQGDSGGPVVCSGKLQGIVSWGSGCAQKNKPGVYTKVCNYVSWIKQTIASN
Nature of the test: anti-trypsin activity, hydrolysis of TAME (tosylarginine methyl ester). Format: biochemical. Particulars: hydrolysis of TAME; read-out: Try: molar concentration inhibiting 50% of enzyme activity (IC50).

[1] abbreviates: hydrolysis of TAME, read-out: Pla: molar concentration inhibiting 50% of enzyme activity (IC50).

Sequence of plasmin (P00747 581-810 limits assumed, species assumed): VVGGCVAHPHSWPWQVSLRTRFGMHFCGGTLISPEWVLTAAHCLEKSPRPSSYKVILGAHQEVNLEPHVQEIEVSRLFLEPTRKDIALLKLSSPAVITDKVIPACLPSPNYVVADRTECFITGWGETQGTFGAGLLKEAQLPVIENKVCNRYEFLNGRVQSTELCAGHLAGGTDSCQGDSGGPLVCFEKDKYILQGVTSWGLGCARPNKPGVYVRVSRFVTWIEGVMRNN
Sequence of plasmin (P00747 97-580 partner limits assumed, species assumed): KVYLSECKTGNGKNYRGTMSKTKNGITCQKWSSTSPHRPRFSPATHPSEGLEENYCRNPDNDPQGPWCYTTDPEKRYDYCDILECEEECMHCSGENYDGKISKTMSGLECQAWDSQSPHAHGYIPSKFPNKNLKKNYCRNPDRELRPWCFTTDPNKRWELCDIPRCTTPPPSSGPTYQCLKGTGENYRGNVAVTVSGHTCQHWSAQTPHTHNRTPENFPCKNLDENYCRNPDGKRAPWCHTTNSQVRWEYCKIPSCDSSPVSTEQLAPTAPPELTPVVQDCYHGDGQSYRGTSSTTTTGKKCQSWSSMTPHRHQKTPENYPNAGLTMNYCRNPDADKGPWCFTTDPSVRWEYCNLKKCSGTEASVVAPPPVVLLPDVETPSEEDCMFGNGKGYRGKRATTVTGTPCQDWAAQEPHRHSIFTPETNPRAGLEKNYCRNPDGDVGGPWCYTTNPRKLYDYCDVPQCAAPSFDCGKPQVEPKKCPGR
Method for C1s: The anti-C1 esterase (C1r, C1s) activity was determined according to the method of Okamura et al. (Biochem. Biophys. Acta (1973), volume 295, pages 252-257). […] The values for C1s represent molar concentrations (IC50) of test compounds which inhibit 50% of the activity of C1s to hydrolyze ATEE (acetyltyrosine ethyl ester).

With `Cl.N=C(N)c1ccc2cc(OC(=O)c3ccc(CNC(=O)/C=C/C(=O)O)o3)ccc2c1` [Example 13, 6-Amidino-2-naphthyl 5-(trans-2-carboxyvinyl)carbonylaminomethylfuran-2-carboxylate hydrochloride], the “Protein concentration in urine” value in the test on Masugi's nephritis (30 mg/kg) was found to be 24.2 ± 16.8 mg/mL.

Turning to `CCC(C(=O)O)C(=O)NCc1ccc(C(=O)Oc2ccc3cc(C(=N)N)ccc3c2)o1.Cl` (stereo not drawn) [Example 38, 6-Amidino-2-naphthyl 5-(2-carboxybutyrylaminomethyl)furan-2-carboxylate hydrochloride], the “Protein concentration in urine” value in the test with Masugi's nephritis (30 mg/kg) was 17.8 ± 12.4 mg/mL.

For the compound `COC(=O)CCC(=O)NCc1ccc(C(=O)Oc2ccc3cc(C(=N)N)ccc3c2)o1.Cl` [Example 34, 6-Amidino-2-naphthyl 5-(3-methoxycarbonylpropionylaminomethyl)furan-2-carboxylate hydrochloride], the IC50 at C1s came to 170 nM; at plasmin (setting [1]), 130 nM; at C1r it was 330 nM; in the test on kallikrein, 130 nM; on thrombin, 89 nM; on trypsin, 270 nM. In addition, the “Protein concentration in urine” value in the test on Masugi's nephritis (30 mg/kg) amounted to 29.3 ± 18.8 mg/mL.

`N=C(N)c1ccc2cc(OC(=O)c3ccc(CN)o3)ccc2c1` [Known compd. II, reference compound]: in the test on Masugi's nephritis (100 mg/kg), the “Protein concentration in urine” value was found to be 22.1 ± 11.4 mg/mL.

As to `N=C(N)c1ccc2cc(OC(=O)c3ccc(CNC(=O)c4ccc(NC5=NCCN5)cc4)o3)ccc2c1` [Known compd. I, reference compound], the “Protein concentration in urine” value in the test on Masugi's nephritis (100 mg/kg) came to 24.4 ± 11.9 mg/mL.

Consider `Cl.N=C(N)c1ccc2cc(OC(=O)c3ccc(CNC(=O)Cc4ccc(C(=O)O)cc4)o3)ccc2c1` [Example 6, 6-Amidino-2-naphthyl 5-(4-carboxyphenylacetylaminomethyl)furan-2-carboxylate hydrochloride], for which the IC50 was 270 nM on C1s; 260 nM on plasmin (setting [1]); 23 nM at C1r; 830 nM in the test with kallikrein; 10000 nM on thrombin; 390 nM at trypsin. The “Protein concentration in urine” value in the test on Masugi's nephritis (30 mg/kg) came to 19.7 ± 11.1 mg/mL.

As to `CC(CC(=O)O)CC(=O)NCc1ccc(C(=O)Oc2ccc3cc(C(=N)N)ccc3c2)o1.Cl` (stereo not drawn) [Example 43, 6-Amidino-2-naphthyl 5-(4-carboxy-3-methylbutyrylaminomethyl)furan-2-carboxylate hydrochloride], the “Protein concentration in urine” value with Masugi's nephritis (30 mg/kg) amounted to 21.8 ± 10.3 mg/mL.

For the compound `Cl.N=C(N)c1ccc2cc(OC(=O)c3ccc(CNC(=O)CCCCCCCC(=O)O)o3)ccc2c1` [Example 26, 6-Amidino-2-naphthyl 5-(8-carboxyoctanoylaminomethyl)furan-2-carboxylate hydrochloride], the “Protein concentration in urine” value with Masugi's nephritis (30 mg/kg) amounted to 25.0 ± 15.4 mg/mL.

On to `Cl.N=C(N)c1ccc2cc(OC(=O)c3ccc(CNC(=O)CCCCC(=O)O)o3)ccc2c1` [Example 23, 6-Amidino-2-naphthyl 5-(5-carboxyvalerylaminomethyl)furan-2-carboxylate hydrochloride], for which the “Protein concentration in urine” value with Masugi's nephritis (30 mg/kg) was found to be 24.2 ± 18.8 mg/mL.

In the case of `N=C(N)c1ccc2cc(OC(=O)c3ccc(CNC(=O)CCC(N)=O)o3)ccc2c1` [Example 32, 6-Amidino-2-naphthyl 5-(3-carbamoylpropionylaminomethyl)furan-2-carboxylatehydrochloride], the “Protein concentration in urine” value in the test with Masugi's nephritis (30 mg/kg) amounted to 22.8 ± 13.9 mg/mL.

For `N=C(N)c1ccc2cc(OC(=O)c3ccc(CNC(=O)CC4(CC(=O)O)CCCC4)o3)ccc2c1` [Example 44, hydrochloride], the “Protein concentration in urine” value in the test with Masugi's nephritis (30 mg/kg) was 20.0 ± 12.9 mg/mL.

`N=C(N)c1ccc2cc(OC(=O)c3ccc(CNC(=O)C(=O)O)o3)ccc2c1` [Example 16, 6-Amidino-2-naphthyl 5-oxaloaminomethylfuran-2-carboxylate hydrochloride]: the IC50 was determined as 350 nM at C1s; 240 nM on plasmin (setting [1]); 6900 nM on C1r; 3800 nM in the test with kallikrein; 1300 nM on thrombin; 340 nM on trypsin.

In the case of `CC(C)(C)OC(=O)CCCC(=O)NCc1ccc(C(=O)Oc2ccc3cc(C(=N)N)ccc3c2)o1` [Example 19, 6-Amidino-2-naphthyl 5-(4-t-butoxycarbonyl-butyrylaminomethyl)furan-2-carboxylate hydrochloride], the IC50 on C1s was found to be 720 nM; on plasmin (setting [1]), 170 nM; on C1r, 1800 nM; in the test on kallikrein it was 250 nM; at thrombin, 360 nM; on trypsin it was 250 nM.

With `CC(C)(C)OC(=O)CCC(=O)NCc1ccc(C(=O)Oc2ccc3cc(C(=N)N)ccc3c2)o1` [Example 18, 6-amidino-2-naphthyl 5-(3-t-butoxycarbonylpropionylaminomethyl)furan-2-carboxylate hydrochloride], the IC50 was determined as 190 nM at C1s; 190 nM against plasmin; 340 nM on C1r; 210 nM in the test with kallikrein; 350 nM at thrombin; 400 nM on trypsin.

On to `N=C(N)c1ccc2cc(OC(=O)c3ccc(CNC(=O)c4ccc(CC(=O)O)cc4)o3)ccc2c1` [Example 7, 6-Amidino-2-naphthyl 5-(4-carboxymethylbenzoylaminomethyl)furan-2-carboxylate hydrochloride], for which the IC50 on C1s came out at 460 nM; on plasmin (setting [1]), 300 nM; on C1r, 740 nM; with kallikrein, 1500 nM; on thrombin, 400 nM; on trypsin, 1800 nM.

As for `N=C(N)c1ccc2cc(OC(=O)c3ccc(CNC(=O)/C=C\C(=O)O)o3)ccc2c1` [Example 12, 6-Amidino-2-naphthyl 5-(cis-2-carboxyvinyl)carbonylaminomethylfuran-2-carboxylate methanesulfonate], the IC50 on C1s was 210 nM; at plasmin (setting [1]), 270 nM; at C1r it was 2800 nM; with kallikrein, 770 nM; on thrombin, 600 nM; at trypsin, 480 nM.

As to `Cl.N=C(N)c1ccc2cc(OC(=O)c3ccc(CNC(=O)CCC(=O)NCC(=O)O)o3)ccc2c1` [Example 36, 6-Amidino-2-naphthyl 5-(3-carboxymethylcarbamoylpropionylaminomethyl)furan-2-carboxylate hydrochloride], the “Protein concentration in urine” value in the test on Masugi's nephritis (30 mg/kg) amounted to 26.2 ± 14.7 mg/mL.

Values taken from patent publication US5532267A, “Amidinonaphthyl furancarboxylate derivatives and acid addition salts therof” (Torii & Co., Ltd., priority 1992, dated 1996).
